# Measurements published in patent US20110224159A1, “BIDESMOSIDIC BETULIN AND BETULINIC ACID DERIVATIVES AND USES THEREOF AS ANTITUMOR AGENTS” (Universite du Quebec a Chicoutime, priority 2008, published 2011).
# “Also recorded” adds a separate entry of the source. Where two headings read alike, the source gives them in different places.
# Key:
# [1] = test system: prostate adenocarcinoma (PC-3); experiment: Cytotoxicity assay (resazurin reduction, 48 h), PC-3; format: cell-based, human
# Experimental: (§1) Human lung carcinoma (A549, ATCC # CCL-185™), human colorectal adenocarcinoma (DLD-1, ATCC # CCL-221™), human breast adenocarcinoma (MCF7, ATCC # HTB-22™), human prostate adenocarcinoma (PC-3, ATCC # CCL-1435™) and human normal skin fibroblasts (WS1, ATCC # CRL-1502™) cell lines were obtained from the American Type Culture Collection (ATCC). All cell lines were cultured in minimum essential medium containing Earle's salts and L-glutamine (Mediatech Cellgro, VA), to which were added 10% fetal bovine serum (Hyclone), vitamins (1×), penicillin (100 IU/mL) and streptomycin (100 μg/mL), essential amino acids (1×), and sodium pyruvate (1×) (Mediatech Cellgro, VA). Cells were kept at 37° C. in a humidified environment containing 5% CO2.
# (§2) Exponentially growing cells were plated in 96-well microplates (Costar, Corning Inc.) at a density of 5×10^3 cells per well in 100 μL of culture medium and were allowed to adhere for 16 h before treatment. Increasing concentrations of each compound in biotechnology performed certified dimethyl sulfoxide (DMSO) (Sigma-Aldrich, Cat. # D2438) and the cells were incubated for 48 h. The final concentration of DMSO in the culture medium was maintained at 0.5% (v/v) to avoid solvent toxicity. Cytotoxicity was assessed using resazurin (O'Brien, J. et al., 2000. Eur J Biochem 267(17): 5421-6) on an automated 96-well Fluoroskan Ascent F1™ plate reader (Labsystems) using excitation and emission wavelengths of 530 and 590 nm, respectively. Fluorescence was proportional to the cellular metabolic activity in each well. Survival percentage was defined as the fluorescence in experimental wells compared to that in control wells after subtraction of blank values. Each experiment was carried out twice in triplicate. IC50 results are expressed as mean±standard deviation.
# (§3) In vitro cytotoxic activity of lupane-type bidesmosidic saponins was evaluated against four human cancer cell lines including lung carcinoma (A549), and colorectal (DLD-1), breast (MCF7) and prostate (PC-3) adenocarcinomas. The parent triterpenoids betulin (1) (Gauthier et al., 2006, supra), betulinic acid (2) (Kessler, J. H. et al., Cancer Lett. 2007, 251: 132-145) and the clinically used etoposide were used as positive controls. The cytotoxicity of 28-O-β-D-glucopyranosides of betulin (Gauthier et al., 2006, supra) and betulinic acid (Baglin et al., 2003, supra) was also investigated. The cell viability was assessed through resazurin reduction test (O'Brien et al, 2000, supra) after 48 hours of incubation between the compounds and cells. Since resazurin (Alamar blue) is a nontoxic dye, measurements can be obtained without killing the cells as opposed to the standard MTT assay (Bellamy, W. T. Drugs 1992, 44: 690-708). The cytotoxicity results were expressed as the concentration inhibiting 50% of the cell growth (IC50).
# [2] = test system: colorectal adenocarcinoma (DLD-1); experiment: Cytotoxicity assay (resazurin reduction, 48 h), DLD-1; format: cell-based; conditions: mean ± SD
# Experimental: as §1, §2, §3
# [3] = test system: breast adenocarcinoma (MCF7); experiment: Cytotoxicity assay (resazurin reduction, 48 h), MCF7; format: cell-based, human
# Experimental: as §1, §2, §3
# [4] = test system: lung carcinoma (A549); experiment: Cytotoxicity assay (resazurin reduction, 48 h), A549; format: cell-based, human
# Experimental: as §1, §2, §3
# [5] = test system: colorectal adenocarcinoma (DLD-1); conditions: human colorectal adenocarcinoma; footnote g: previously reported in Gauthier et al. 2006; cited from earlier work
# [6] = test system: lung carcinoma (A549); conditions: human lung carcinoma; footnote g: previously reported in Gauthier et al. 2006; cited from earlier work
# [7] = test system: tested cancer cell lines (A549, DLD-1, MCF7, PC-3); experiment: Cytotoxicity assay (resazurin reduction, 48 h), summary over the tested cancer cell lines; format: cell-based, human; conditions: for cytotoxicity compared with reference or other tested compounds: tested cancer cell lines, P<0.05 where stated; for IC50: range or bound over the cell lines, read-out: IC50 against the tested cancer cell lines
# Experimental: as §1, §2
# as §3, with “The cytotoxicity results were expressed as the concentration inhibiting 50% of the cell growth (IC50).” left out
# [8] = human colorectal adenocarcinoma
# [9] = human lung carcinoma, 48 h, resazurin, mean ± SD
# [10] = human prostate adenocarcinoma, 48 h, resazurin, mean ± SD, read-out: IC50 PC-3
# [11] = human breast adenocarcinoma, 48 h, resazurin, mean ± SD, read-out: IC50 MCF7
Molecule,"IC50 [2, 8] [µM]","IC50 [4, 9] [µM]","IC50 [1, 10] [µM]","IC50 [3, 11] [µM]",also measured
"C=C(C)[C@@H]1CC[C@]2(CO[C@@H]3O[C@H](CO)[C@@H](O)[C@H](O)[C@H]3O)CC[C@]3(C)[C@H](CC[C@@H]4[C@@]5(C)CC[C@H](O[C@@H]6OC[C@H](O)[C@H](O)[C@H]6O)C(C)(C)[C@@H]5CC[C@]43C)[C@@H]12 [Compound 16a, 28-O-β-D-Glucopyranosyl betulin 313-O-α-L-arabinopyranoside]",19 ± 2,> 100,–,–,"IC50 ([1]; PC-3 cell line, read-out: IC50 against PC-3): 5.3 µM; IC50 ([3]; breast adenocarcinoma (MCF7), read-out: IC50 against MCF7): 9.5 µM"
28-O-β-D-Glucopyranosyl betulin 313-O-α-L-rhamnopyranoside [Compound 16b],10.6 ± 0.9,16.8 ± 0.9,6.9 ± 0.4,9 ± 0.7,–
"C=C(C)[C@@H]1CC[C@]2(C(=O)O)CC[C@]3(C)[C@H](CC[C@@H]4[C@@]5(C)CC[C@H](O)C(C)(C)[C@@H]5CC[C@]43C)[C@@H]12 [Compound 2, Betulinic acid]",–,–,40 ± 2,41 ± 1,IC50 [5]: 15 µM; IC50 [6]: 10.3 ± 0.4 µM
"C=C(C)[C@@H]1CC[C@]2(CO[C@@H]3O[C@H](CO)[C@@H](O)[C@H](O)[C@H]3O)CC[C@]3(C)[C@H](CC[C@@H]4[C@@]5(C)CC[C@H](O[C@@H]6O[C@H](CO)[C@@H](O)[C@H](O)[C@H]6O)C(C)(C)[C@@H]5CC[C@]43C)[C@@H]12 [Compound 21a, 28-O-β-D-Glucopyranosyl betulin 3β-O-β-D-glucopyranoside]",27 ± 2,> 100,> 100,14.5 ± 0.9,"cytotoxicity compared with betulinic acid, MCF7 ([3]; breast adenocarcinoma (MCF7)): significantly more active than betulinic acid (2)"
"COc1cc([C@@H]2c3cc4c(cc3[C@@H](O[C@@H]3O[C@@H]5CO[C@@H](C)O[C@H]5[C@H](O)[C@H]3O)[C@H]3COC(=O)[C@H]23)OCO4)cc(OC)c1O [Etoposide, etoposide, reference compound]",–,–,–,–,"IC50 ([2]; DLD-1, human colorectal adenocarcinoma): 27 ± 5 µM; IC50 ([4]; A549, human lung carcinoma, 48 h, resazurin, mean ± SD): 3.4 ± 0.1 µM"
28-O-α-L-Rhamnopyranosyl betulinic acid 3β-O-α-L-rhamnopyranoside [Compound 22b],7.3 ± 0.3,7.2 ± 0.5,7.2 ± 0.5,6 ± 0.6,cytotoxicity compared with reference or other tested compounds [7]: significantly more active than their parent triterpenoids
"C=C(C)[C@@H]1CC[C@]2(CO[C@@H]3O[C@@H](C)[C@H](O)[C@@H](O)[C@H]3O)CC[C@]3(C)[C@H](CC[C@@H]4[C@@]5(C)CC[C@H](O[C@@H]6O[C@@H](C)[C@H](O)[C@@H](O)[C@H]6O)C(C)(C)[C@@H]5CC[C@]43C)[C@@H]12 [Compound 22a, 28-O-α-L-Rhamnopyranosyl betulin 3β-O-α-L-rhamnopyranoside]",1.9 ± 0.1,1.9 ± 0.1,1.8 ± 0.1,1.7 ± 0.2,IC50 [7]: 1.7 to 1.9 µM; cytotoxicity compared with reference or other tested compounds [7]: significantly more active than their parent triterpenoids; also recorded: the most potent of all tested compounds
betulinic acid 3 β-O-α-L-rhamnopyranoside [reference compound],–,–,–,–,"IC50 ([4]; A549, comparator named in text): 3.8 µM"
"C=C(C)[C@@H]1CC[C@]2(C(=O)O[C@@H]3O[C@H](CO)[C@@H](O)[C@H](O)[C@H]3O)CC[C@]3(C)[C@H](CC[C@@H]4[C@@]5(C)CC[C@H](O[C@@H]6O[C@@H](C)[C@H](O)[C@@H](O)[C@H]6O)C(C)(C)[C@@H]5CC[C@]43C)[C@@H]12 [Compound 19, 28-O-β-D-Glucopyranosyl betulinic acid 3β-O-α-L-rhamnopyranoside]",11 ± 0.5,23 ± 1,11.2 ± 0.8,5.7 ± 0.6,–
"28-O-β-D-Glucopyranosyl betulin [Compound 28GBet, reference compound]",> 100,–,> 100,> 100,IC50 [6]: > 100 µM
"C=C(C)[C@@H]1CC[C@]2(C(=O)O[C@@H]3O[C@H](CO)[C@@H](O)[C@H](O)[C@H]3O)CC[C@]3(C)[C@H](CC[C@@H]4[C@@]5(C)CC[C@H](O[C@@H]6O[C@H](CO)[C@@H](O)[C@H](O)[C@H]6O)C(C)(C)[C@@H]5CC[C@]43C)[C@@H]12 [Compound 21b, 28-O-β-D-Glucopyranosyl betulinic acid 3β-O-β-D-glucopyranoside]",> 100,> 100,66 ± 3,20 ± 2,"cytotoxicity compared with betulinic acid, MCF7 ([3]; breast adenocarcinoma (MCF7)): significantly more active than betulinic acid (2)"
"C=C(C)[C@@H]1CC[C@]2(C(=O)O[C@@H]3O[C@H](CO)[C@@H](O)[C@H](O)[C@H]3O)CC[C@]3(C)C(CC[C@@H]4[C@@]5(C)CC[C@H](O)C(C)(C)[C@@H]5CC[C@]43C)[C@H]12 (stereo partly drawn) [Compound 28GBetA, 28-O-β-D-glucopyranosyl betulinic acid, reference compound]",> 100,> 100,> 100,> 100,–
"C=C(C)[C@@H]1CC[C@]2(C(=O)O[C@@H]3O[C@H](CO)[C@@H](O)[C@H](O)[C@H]3O)CC[C@]3(C)[C@H](CC[C@@H]4[C@@]5(C)CC[C@H](O[C@@H]6OC[C@H](O)[C@H](O)[C@H]6O)C(C)(C)[C@@H]5CC[C@]43C)[C@@H]12 [Compound 3, 28-O-β-D-Glucopyranosyl betulinic acid 3β-O-α-L-arabinopyranoside]",60 ± 5,76 ± 4,68 ± 7,23 ± 1,IC50 [7]: 23 to 76 µM
